From article PMC3004914, “Classification of Drugs Based on Properties of Sodium Channel Inhibition: A Comparative Automated Patch-Clamp Study” (PLoS ONE, 2010)
pKd, pKi: −log10 of the molar value. Like-named read-outs stand apart in the source and are kept apart here.

Legend:
[1] = biological target: T1, rNav1.2 sodium channels (HEK-293 cells) (Rattus norvegicus, UniProt P04775); experiment: steady-state inactivation protocol (availability curves), QPatch automated patch-clamp; format: cell-based
T1 sequence (P04775 whole entry): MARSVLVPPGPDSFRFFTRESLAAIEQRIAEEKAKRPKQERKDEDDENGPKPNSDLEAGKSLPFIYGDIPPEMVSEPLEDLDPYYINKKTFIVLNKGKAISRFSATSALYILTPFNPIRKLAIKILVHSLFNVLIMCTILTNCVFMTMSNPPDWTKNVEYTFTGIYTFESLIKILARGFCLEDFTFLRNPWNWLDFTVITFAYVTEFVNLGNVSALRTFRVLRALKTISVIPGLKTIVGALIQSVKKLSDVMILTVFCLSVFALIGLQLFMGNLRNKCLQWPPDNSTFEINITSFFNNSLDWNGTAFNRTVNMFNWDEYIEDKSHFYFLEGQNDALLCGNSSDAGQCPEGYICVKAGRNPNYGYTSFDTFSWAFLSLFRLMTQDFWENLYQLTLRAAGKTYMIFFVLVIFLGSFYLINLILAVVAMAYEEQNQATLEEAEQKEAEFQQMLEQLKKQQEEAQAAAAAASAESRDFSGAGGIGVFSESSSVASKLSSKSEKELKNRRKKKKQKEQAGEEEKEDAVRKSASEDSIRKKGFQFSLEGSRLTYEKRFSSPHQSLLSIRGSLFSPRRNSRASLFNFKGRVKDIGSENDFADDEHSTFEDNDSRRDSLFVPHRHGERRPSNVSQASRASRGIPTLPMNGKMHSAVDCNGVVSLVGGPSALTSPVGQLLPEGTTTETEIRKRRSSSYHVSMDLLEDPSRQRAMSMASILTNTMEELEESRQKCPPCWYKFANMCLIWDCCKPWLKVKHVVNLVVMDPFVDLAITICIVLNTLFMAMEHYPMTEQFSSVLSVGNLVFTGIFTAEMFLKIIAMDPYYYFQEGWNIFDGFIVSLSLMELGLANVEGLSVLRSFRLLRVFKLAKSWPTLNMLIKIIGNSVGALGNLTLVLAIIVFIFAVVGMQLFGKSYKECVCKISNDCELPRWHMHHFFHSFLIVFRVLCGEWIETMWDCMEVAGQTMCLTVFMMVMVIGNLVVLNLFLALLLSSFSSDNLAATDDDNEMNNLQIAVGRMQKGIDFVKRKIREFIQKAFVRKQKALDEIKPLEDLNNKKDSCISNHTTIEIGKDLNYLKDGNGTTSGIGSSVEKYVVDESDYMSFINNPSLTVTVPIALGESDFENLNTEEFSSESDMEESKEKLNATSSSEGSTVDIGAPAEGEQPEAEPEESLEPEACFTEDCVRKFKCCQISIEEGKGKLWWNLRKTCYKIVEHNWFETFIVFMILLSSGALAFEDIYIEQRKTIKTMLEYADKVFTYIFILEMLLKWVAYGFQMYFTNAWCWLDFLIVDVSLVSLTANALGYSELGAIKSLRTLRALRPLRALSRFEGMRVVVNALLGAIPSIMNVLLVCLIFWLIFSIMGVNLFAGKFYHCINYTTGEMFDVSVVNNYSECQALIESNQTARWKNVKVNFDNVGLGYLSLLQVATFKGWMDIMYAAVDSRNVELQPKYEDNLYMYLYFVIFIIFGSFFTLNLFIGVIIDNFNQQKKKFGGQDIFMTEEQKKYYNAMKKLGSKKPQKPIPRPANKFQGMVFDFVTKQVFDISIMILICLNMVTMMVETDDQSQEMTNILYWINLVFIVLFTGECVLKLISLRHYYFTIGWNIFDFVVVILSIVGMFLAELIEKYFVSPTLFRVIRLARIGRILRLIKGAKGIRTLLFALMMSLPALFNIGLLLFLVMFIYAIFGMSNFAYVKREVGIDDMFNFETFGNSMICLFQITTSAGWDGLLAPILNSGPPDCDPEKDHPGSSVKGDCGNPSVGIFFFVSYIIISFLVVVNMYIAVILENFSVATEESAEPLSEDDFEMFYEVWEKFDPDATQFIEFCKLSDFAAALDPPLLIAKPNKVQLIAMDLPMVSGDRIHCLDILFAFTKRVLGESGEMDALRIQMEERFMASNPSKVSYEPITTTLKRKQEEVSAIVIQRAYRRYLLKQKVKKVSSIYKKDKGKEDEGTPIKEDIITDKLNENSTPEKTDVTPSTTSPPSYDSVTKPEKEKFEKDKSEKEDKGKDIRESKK
Method in brief: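 HEK-293 cells stably expressing rat Nav1.2, recorded by automated patch clamp in extracellular solution pH 7.3 containing CdCl2 and TEA. Availability measured with 400 ms pre-pulses from −150 to −30 mV, then a 10 ms test pulse to −10 mV. Kr, Ki (four-state model) and Kr/Ki state-dependence derived from inhibition and ΔV1/2.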

[2] = tested on: sodium channels; conditions: cited from earlier work
[3] = biological target: T1, rNav1.2 sodium channels (HEK-293 cells); experiment: 5 Hz train protocol, QPatch automated patch-clamp; format: cell-based;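 as to UD (use-dependence of the inhibition): UD = (A3/A4)/(A1/A2) as ratios of peak amplitudes from Figure 1A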
Method in brief: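 rNav1.2 in stable HEK-293 cells, QPatch whole-cell; 5 Hz trains of five pulses from −90 to −10 mV, repeated every 20 s; 10 control trains, 10 with drug, then washout. Inhibition of peak current at a single concentration gave IC50; reversibility, use-dependence and τoff also derived.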

[4] = biological target: sodium channels; conditions: cited from earlier work; for pKi: read-out: Ki−Lit; for pKd: read-out: Kr−Lit
[5] = human plasma, cited from earlier work
[6] = HEK293, read-out: Inh (inhibited fraction) at holding potential −150 mV
[7] = arithmetic mean, 300 µM, read-out: Ki-Kapp arith
[8] = arithmetic mean, 300 µM, read-out: Ki-ΔV1/2 arith
[9] = arithmetic mean, 300 µM, read-out: Kr arith
[10] = geometric mean, from Inh at −150 mV, 300 µM, read-out: Kr (resting state affinity)
[11] = geometric mean, from apparent affinity, 300 µM, read-out: Ki−Kapp (inactivated state affinity)
[12] = geometric mean, from shift of availability curve, 300 µM, read-out: Ki−ΔV1/2 (inactivated state affinity)
[13] = 300 μM, 3 s assigned where too short to be resolved
[14] = 300 μM, Rev = A5/A1 after washout
[15] = HEK293, read-out: IC50, calculated from Inh at single concentration 100 μM, −90 mV, 5 Hz train
[16] = HEK293, read-out: IC50, calculated from Inh at single concentration 300 μM, −90 mV, 5 Hz train
[17] = HEK293, read-out: Inh (inhibited fraction)
[18] = HEK293, 30 µM, read-out: Inh (inhibited fraction) at holding potential −150 mV
[19] = 30 μM, 500 s assigned where irreversible
[20] = HEK293, 30 μM, −90 mV holding potential, 5 Hz train, read-out: Inh (inhibited fraction)
[21] = HEK293, calculated from Inh at single concentration 30 μM, −90 mV, 5 Hz train, read-out: IC50
[22] = 100 μM, 500 s assigned where irreversible
[23] = 100 μM, Rev = A5/A1 after washout
[24] = HEK293, 100 μM, −90 mV holding potential, 5 Hz train, read-out: Inh (inhibited fraction)
[25] = HEK293, calculated from Inh at single concentration 100 μM, −90 mV, 5 Hz train, read-out: IC50
[26] = HEK293, 100 µM, read-out: Inh (inhibited fraction) at holding potential −150 mV
[27] = arithmetic mean, 100 µM, read-out: Ki-Kapp arith
[28] = arithmetic mean, 100 µM, read-out: Ki-ΔV1/2 arith
[29] = arithmetic mean, 100 µM, read-out: Kr arith
[30] = geometric mean, from Inh at −150 mV, 100 µM, read-out: Kr (resting state affinity)
[31] = geometric mean, from apparent affinity, 100 µM, read-out: Ki−Kapp (inactivated state affinity)
[32] = geometric mean, from shift of availability curve, 100 µM, read-out: Ki−ΔV1/2 (inactivated state affinity)

CCN(CC)CC(=O)Nc1c(C)cccc1C [LID, Lidocaine]
inhibition at 300 µM [1, 6]: 9% | pKi [1, 7]: 4.15 | pKi [1, 8]: 3.94 | pKd [1, 9]: 2.48 | pKd [1, 10]: 2.50 | pKi [1, 11]: 4.18 | pKi [1, 12]: 4.05 | criterion of at least 60% inhibition at 10 µM concentration [2]: failed to fulfill this criteria | τoff ([3]; 300 μM): 6 s | τon [3, 13]: 3 s | UD (use-dependence of the inhibition) ([3]; 300 μM, 5 Hz train): 1.14 | Rev (reversibility) [3, 14]: 0.95 | potency estimated from few doses [3, 15]: 1050 µM | potency estimated from few doses [3, 16]: 977 µM | potency estimated from few doses ([3]; HEK293, read-out: IC50, calculated from Inh at single concentration 1000 µM): 1270 µM | inhibition at 100 µM [3, 17]: 9% | inhibition at 300 µM [3, 17]: 23% | inhibition at 1000 µM [3, 17]: 44% | potency ([3]; in words): among the least potent SCIs | potency estimated from few doses ([3]; read-out: IC50, calculated from Inh at single concentration 300 μM, −90 mV, 5 Hz train): 1080 µM

Nc1nnc(-c2cccc(Cl)c2Cl)c(N)n1 [LTG, Lamotrigine]
ΔV1/2 (shift of availability curve) ([1]; 300 μM): −10.3 mV | inhibition at 300 µM [1, 6]: 12% | pKi [1, 7]: 4.39 | pKi [1, 8]: 4.43 | pKd [1, 9]: 2.63 | pKd [1, 10]: 2.64 | pKi [1, 11]: 4.44 | pKi [1, 12]: 4.50 | criterion of at least 60% inhibition at 10 µM concentration [2]: failed to fulfill this criteria | τoff ([3]; 300 μM): 18.1 s | τon [3, 13]: 8.19 s | UD (use-dependence of the inhibition) ([3]; 300 μM, 5 Hz train): 0.97 | Rev (reversibility) [3, 14]: 0.85 | potency estimated from few doses [3, 16]: 905 µM | inhibition at 300 µM [3, 17]: 25% | pKi ([4]; averaged literature data): 4.82 | pKd ([4]; averaged literature data): 2.81 | plasma conc. ([5]; as printed in each cell): 2.5 [44] µg/ml | plasma conc. ([5]; as printed in the µg/ml cell): 9.762 µM

Fc1ccc([C@@H]2CCNC[C@H]2COc2ccc3c(c2)OCO3)cc1 [PRX, Paroxetine]
ΔV1/2 (shift of availability curve) ([1]; 30 μM): −11.4 mV | inhibition at 30 µM [1, 18]: 55% | pKi ([1]; arithmetic mean, 30 µM, read-out: Ki-Kapp arith): 5.79 | pKi ([1]; arithmetic mean, 30 µM, read-out: Ki-ΔV1/2 arith): 5.05 | pKd ([1]; arithmetic mean, 30 µM, read-out: Kr arith): 4.49 | pKd ([1]; geometric mean, from Inh at −150 mV, 30 µM, read-out: Kr (resting state affinity)): 4.62 | pKi ([1]; geometric mean, from apparent affinity, 30 µM, read-out: Ki−Kapp (inactivated state affinity)): 6.14 | pKi ([1]; geometric mean, from shift of availability curve, 30 µM, read-out: Ki−ΔV1/2 (inactivated state affinity)): 5.70 | τon ([3]; 30 μM): 32.07 s | UD (use-dependence of the inhibition) ([3]; 30 μM, 5 Hz train): 1.46 | τoff [3, 19]: 35.99 s | Rev (reversibility) ([3]; 30 μM, Rev = A5/A1 after washout): 0.34 | inhibition at 30 µM [3, 20]: 65% | potency estimated from few doses [3, 21]: 16.2 µM | pKi ([4]; averaged literature data): 5.84 | pKd ([4]; averaged literature data): 4.77 | plasma conc. ([5]; as printed in each cell): 0.38 [44] µg/ml

COc1ccccc1OCC(O)CN1CCN(CC(=O)Nc2c(C)cccc2C)CC1 (stereo not shown) [RAN, Ranolazine]
ΔV1/2 (shift of availability curve) ([1]; 300 μM): −5.52 mV | inhibition at 300 µM ([1]; HEK293, 300 µM, read-out: Inh (inhibited fraction) at holding potential −150 mV): 42% | pKi [1, 7]: 4.71 | pKi [1, 8]: 4.11 | pKd [1, 9]: 3.23 | pKd [1, 10]: 3.36 | pKi [1, 11]: 4.97 | pKi [1, 12]: 4.18 | τon ([3]; 100 μM): 8.13 s | UD (use-dependence of the inhibition) ([3]; 100 μM, 5 Hz train): 1.21 | τoff [3, 22]: 13.24 s | Rev (reversibility) [3, 23]: 0.89 | inhibition at 100 µM [3, 24]: 16% | potency estimated from few doses [3, 25]: 355 µM | (IC50/Ki) / (Kr/Ki) ratio ([3]; from IC50 (5 Hz train) and Kr, Ki (steady-state inactivation)): 0.94 | pKi ([4]; averaged literature data): 4.12 | pKd ([4]; averaged literature data): 3.00 | plasma conc. ([5]; as printed in each cell): 3.59 [52] µg/ml | plasma conc. ([5]; as printed in the µg/ml cell): 7.173 µM

Nc1nc2ccc(OC(F)(F)F)cc2s1 [RIL, Riluzole]
inhibition at 30 µM [1, 18]: 8% | inhibition at 100 µM [1, 26]: 22% | Rev (reversibility) [3]: 0.52 | τon ([3]; 30 μM): 3.9 s | UD (use-dependence of the inhibition) ([3]; 30 μM, 5 Hz train): 0.95 | τoff [3, 19]: 17.6 s | use-dependence (UD) ([3]; 5 Hz train): no use-dependence | inhibition at 30 µM [3, 20]: 27% | potency estimated from few doses [3, 21]: 81 µM | pKi ([4]; averaged literature data): 6.31 | pKd ([4]; averaged literature data): 4.20 | plasma conc. ([5]; as printed in each cell): 0.17 [44] µg/ml | plasma conc. ([5]; as printed in the µg/ml cell): 0.739 µM

C[Si](C)(Cc1ccc(F)cc1)CN1CCCCC1 [SIL, Silperisone]
Inh (inhibited fraction) at holding potential −150 mV ([1]; 100 μM): 0.43 | ΔV1/2 (shift of availability curve) ([1]; 100 μM): −7.66 mV | pKi [1, 27]: 5.15 | pKi [1, 28]: 4.84 | pKd [1, 29]: 3.87 | pKd [1, 30]: 3.88 | pKi [1, 31]: 5.17 | pKi [1, 32]: 4.85 | τon ([3]; 100 μM): 4.1 s | UD (use-dependence of the inhibition) ([3]; 100 μM, 5 Hz train): 1.16 | τoff [3, 22]: 15.21 s | Rev (reversibility) [3, 23]: 0.8 | Inh (inhibited fraction) ([3]; 100 μM, −90 mV holding potential, 5 Hz train): 0.45 | potency estimated from few doses ([3]; calculated from Inh at single concentration 100 μM, −90 mV, 5 Hz train, read-out: IC50): 121 µM | pKi ([4]; averaged literature data): 4.46 | pKd ([4]; averaged literature data): 3.47 | plasma conc. ([5]; as printed in each cell): 0.45 [56] µg/ml | plasma conc. ([5]; as printed in the µg/ml cell): 1.484 µM

Cc1ccc(C(=O)C(C)CN2CCCCC2)cc1 (stereo not shown) [TOL, Tolperisone]
ΔV1/2 (shift of availability curve) ([1]; 100 μM): −6.47 mV | inhibition at 100 µM [1, 26]: 21% | pKi [1, 27]: 4.61 | pKi [1, 28]: 4.36 | pKd [1, 29]: 3.40 | pKd [1, 30]: 3.41 | pKi [1, 31]: 4.68 | pKi [1, 32]: 4.51 | τon ([3]; 100 μM): 5.57 s | UD (use-dependence of the inhibition) ([3]; 100 μM, 5 Hz train): 1.14 | τoff [3, 22]: 7.42 s | Rev (reversibility) [3, 23]: 0.95 | inhibition at 100 µM [3, 24]: 23% | potency estimated from few doses [3, 25]: 336 µM | pKi ([4]; averaged literature data): 5.29 | pKd ([4]; averaged literature data): 3.42 | plasma conc. ([5]; as printed in each cell): 0.43 [57] µg/ml | plasma conc. ([5]; as printed in the µg/ml cell): 1.508 µM

COc1ccc(C(CN(C)C)C2(O)CCCCC2)cc1 (stereo not shown) [VFX, Venlafaxine]
ΔV1/2 (shift of availability curve) ([1]; 100 μM): −4.66 mV | inhibition at 100 µM [1, 6]: 11% | pKi ([1]; Ki-Kapp arith, arithmetic mean, 100 µM): 4.14 | pKi ([1]; Ki-ΔV1/2 arith, arithmetic mean, 100 µM): 4.12 | pKi ([1]; Ki−Kapp (inactivated state affinity), geometric mean, from apparent affinity, 100 µM): 4.20 | pKi ([1]; Ki−ΔV1/2 (inactivated state affinity), geometric mean, from shift of availability curve, 100 µM): 4.23 | pKd ([1]; Kr (resting state affinity), geometric mean, from Inh at −150 mV, 100 µM): 3.05 | pKd ([1]; Kr arith, arithmetic mean, 100 µM): 3.00 | τon ([3]; 100 μM): 4.85 s | UD (use-dependence of the inhibition) ([3]; 100 μM, 5 Hz train): 1.05 | τoff [3, 22]: 5.2 s | Rev (reversibility) [3, 23]: 0.89 | potency estimated from few doses [3, 15]: 727 µM | inhibition at 100 µM [3, 17]: 12% | pKi ([4]; averaged literature data): 6.19 | pKd [4]: 5.10 | plasma conc. ([5]; as printed in each cell): 0.17 [44] µg/ml | plasma conc. ([5]; as printed in the µg/ml cell): 0.532 µM
